Toxic doses and inconclusive results are not listed. The calls were made as follows: active = survival T/C of 150% or more; inactive = T/C below 125% in these data.
System: BDF1 mice, P388 leukemia ip, median survival T/C
Assay: NCI In Vivo Anticancer Drug Screen. Data for tumor model P388 Leukemia (intraperitoneal) in B6D2F1 (BDF1) mice
Conditions: endpoint: median survival time, higher = longer survival
Summary of the method: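 T/C = treated-group survival ÷ vehicle-control survival; tumour transplanted into mice before dosing.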

[1] = dose: 100.0 mg/kg/injection, schedule: Q04DX003 (ip), vehicle: saline with Tween-80
[2] = dose: 200.0 mg/kg/injection, schedule: Q04DX003 (ip), vehicle: saline with Tween-80
[3] = dose: 100.0 mg/kg/injection, schedule: Q01DX009 (ip), vehicle: saline with Tween-80
[4] = dose: 200.0 mg/kg/injection, schedule: Q01DX009 (ip), vehicle: saline with Tween-80
[5] = dose: 400.0 mg/kg/injection, schedule: Q04DX003 (ip), vehicle: Klucel (hydroxypropylcellulose) (HPC)

Measured: T/C

COc1cc(C[C@H]2c3cc(OC)c(OC)cc3CCN2C)c(Oc2cc3c(cc2OC)-c2c(OC)c(OC)cc4c2[C@H](C3)N(C)CC4)cc1OC
inactive: dose: 9.0 mg/kg/injection, schedule: Q01DX010 (ip), vehicle: other 90 % of control | dose: 12.0 mg/kg/injection, schedule: Q01DX005 (ip), vehicle: other 95 % of control | dose: 12.0 mg/kg/injection, schedule: Q01DX010 (ip), vehicle: other 100 % of control | dose: 12.5 mg/kg/injection, schedule: Q01DX010 (ip), vehicle: other 109 % of control | dose: 18.0 mg/kg/injection, schedule: Q04DX003 (ip), vehicle: other 95 % of control | dose: 18.75 mg/kg/injection, schedule: Q01DX010 (ip), vehicle: other 118 % of control | dose: 24.0 mg/kg/injection, schedule: Q01DX005 (ip), vehicle: other 90 % of control | dose: 24.0 mg/kg/injection, schedule: Q01DX010 (ip), vehicle: other 104 % of control | dose: 25.0 mg/kg/injection, schedule: Q01DX010 (ip), vehicle: acetone 104 % of control | dose: 25.0 mg/kg/injection, schedule: Q01DX010 (ip), vehicle: other 104 % of control | dose: 27.0 mg/kg/injection, schedule: Q08DX002 (ip), vehicle: other 100 % of control | dose: 36.0 mg/kg/injection, schedule: Q04DX003 (ip), vehicle: other 90 % of control | dose: 37.5 mg/kg/injection, schedule: Q01DX010 (ip), vehicle: carboxymethylcellulose (CMC) 100 % of control | dose: 37.5 mg/kg/injection, schedule: Q01DX010 (ip), vehicle: other 104 % of control | dose: 48.0 mg/kg/injection, schedule: Q01DX005 (ip), vehicle: other 100 % of control | dose: 48.0 mg/kg/injection, schedule: Q01DX010 (ip), vehicle: other 104 % of control | dose: 50.0 mg/kg/injection, schedule: Q01DX010 (ip), vehicle: acetone 109 % of control | dose: 50.0 mg/kg/injection, schedule: Q01DX010 (ip), vehicle: clinical formulation 109 % of control | dose: 50.0 mg/kg/injection, schedule: Q01DX010 (ip), vehicle: other 120 % of control | dose: 54.0 mg/kg/injection, schedule: Q08DX002 (ip), vehicle: other 95 % of control | dose: 72.0 mg/kg/injection, schedule: Q04DX003 (ip), vehicle: other 100 % of control | dose: 75.0 mg/kg/injection, schedule: Q01DX010 (ip), vehicle: carboxymethylcellulose (CMC) 100 % of control | dose: 96.0 mg/kg/injection, schedule: Q01DX005 (ip), vehicle: other 100 % of control | dose: 96.0 mg/kg/injection, schedule: Q01DX010 (ip), vehicle: other 109 % of control | dose: 100.0 mg/kg/injection, schedule: Q01DX001 (ip), vehicle: carboxymethylcellulose (CMC) 110 % of control | dose: 100.0 mg/kg/injection, schedule: Q01DX010 (ip), vehicle: acetone 113 % of control | dose: 100.0 mg/kg/injection, schedule: Q01DX010 (ip), vehicle: other 120 % of control | dose: 100.0 mg/kg/injection, schedule: Q04DX002 (ip), vehicle: Klucel (hydroxypropylcellulose) (HPC) 100 % of control | dose: 108.0 mg/kg/injection, schedule: Q08DX002 (ip), vehicle: other 100 % of control | dose: 150.0 mg/kg/injection, schedule: Q01DX010 (ip), vehicle: carboxymethylcellulose (CMC) 105 % of control | dose: 200.0 mg/kg/injection, schedule: Q01DX001 (ip), vehicle: carboxymethylcellulose (CMC) 105 % of control | dose: 200.0 mg/kg/injection, schedule: Q01DX010 (ip), vehicle: other 100 % of control | dose: 200.0 mg/kg/injection, schedule: Q04DX002 (ip), vehicle: Klucel (hydroxypropylcellulose) (HPC) 91 % of control | dose: 216.0 mg/kg/injection, schedule: Q08DX002 (ip), vehicle: other 100 % of control | dose: 400.0 mg/kg/injection, schedule: Q01DX001 (ip), vehicle: carboxymethylcellulose (CMC) 110 % of control | dose: 400.0 mg/kg/injection, schedule: Q04DX002 (ip), vehicle: Klucel (hydroxypropylcellulose) (HPC) 100 % of control

Cc1cc(Cl)c2ccccc2c1N
inactive: dose: 44.0 mg/kg/injection, schedule: Q01DX009 (ip), vehicle: other 100 % of control | dose: 66.0 mg/kg/injection, schedule: Q01DX009 (ip), vehicle: other 110 % of control | dose: 100.0 mg/kg/injection, schedule: Q01DX009 (ip), vehicle: other 115 % of control | dose: 150.0 mg/kg/injection, schedule: Q01DX009 (ip), vehicle: other 110 % of control

CCOC(=O)C(=CN1CCCCC1)C(=O)OCC
inactive: [1] 95 % of control | [2] 100 % of control | dose: 400.0 mg/kg/injection, schedule: Q04DX003 (ip), vehicle: saline with Tween-80 100 % of control

CC(=N\[O-])/C(C)=N/O.CC(=N\[O-])/C(C)=N/O.[Cl-].[Cl-].[Rh+3].c1ccncc1
inactive: dose: 75.0 mg/kg/injection, schedule: Q01DX009 (ip), vehicle: water 110 % of control | dose: 150.0 mg/kg/injection, schedule: Q01DX009 (ip), vehicle: water 110 % of control

CC(=O)C1=CN(Cc2ccccc2)C(O)CC1C(N)=O (centres undefined)
inactive: dose: 50.0 mg/kg/injection, schedule: Q01DX009 (ip), vehicle: saline with Tween-80 101 % of control | [3] 109 % of control | [4] 115 % of control

CN(C)c1ccc(C=O)c(Br)c1
inactive: dose: 12.5 mg/kg/injection, schedule: Q01DX009 (ip), vehicle: Klucel (hydroxypropylcellulose) (HPC) 109 % of control | dose: 25.0 mg/kg/injection, schedule: Q01DX009 (ip), vehicle: Klucel (hydroxypropylcellulose) (HPC) 90 % of control | dose: 50.0 mg/kg/injection, schedule: Q01DX009 (ip), vehicle: Klucel (hydroxypropylcellulose) (HPC) 86 % of control | dose: 100.0 mg/kg/injection, schedule: Q04DX003 (ip), vehicle: Klucel (hydroxypropylcellulose) (HPC) 90 % of control | [5] 104 % of control

Cn1c(/N=C(/N)N=C(N)N)cc(=O)n(C)c1=O
inactive: dose: 50.0 mg/kg/injection, schedule: Q04DX003 (ip), vehicle: saline 104 % of control | dose: 100.0 mg/kg/injection, schedule: Q04DX003 (ip), vehicle: saline 100 % of control | dose: 200.0 mg/kg/injection, schedule: Q04DX003 (ip), vehicle: saline 95 % of control

Cc1c(N)cccc1N
inactive: dose: 12.5 mg/kg/injection, schedule: Q01DX009 (ip), vehicle: saline with Tween-80 96 % of control | dose: 25.0 mg/kg/injection, schedule: Q01DX009 (ip), vehicle: saline with Tween-80 123 % of control

Cc1cc2c(c(O)c1CN1CCOCC1)C1=C(CCCC1)C(C)(C)O2
inactive: dose: 1.0 mg/kg/injection, schedule: Q01DX001 (ip), vehicle: Klucel (hydroxypropylcellulose) (HPC) 99 % of control | dose: 2.0 mg/kg/injection, schedule: Q01DX001 (ip), vehicle: Klucel (hydroxypropylcellulose) (HPC) 112 % of control | dose: 4.0 mg/kg/injection, schedule: Q01DX001 (ip), vehicle: Klucel (hydroxypropylcellulose) (HPC) 104 % of control | dose: 8.0 mg/kg/injection, schedule: Q01DX001 (ip), vehicle: Klucel (hydroxypropylcellulose) (HPC) 104 % of control | dose: 16.0 mg/kg/injection, schedule: Q01DX001 (ip), vehicle: Klucel (hydroxypropylcellulose) (HPC) 109 % of control | dose: 32.0 mg/kg/injection, schedule: Q01DX001 (ip), vehicle: Klucel (hydroxypropylcellulose) (HPC) 98 % of control | dose: 64.0 mg/kg/injection, schedule: Q01DX001 (ip), vehicle: Klucel (hydroxypropylcellulose) (HPC) 96 % of control | dose: 128.0 mg/kg/injection, schedule: Q01DX001 (ip), vehicle: Klucel (hydroxypropylcellulose) (HPC) 106 % of control | dose: 256.0 mg/kg/injection, schedule: Q01DX001 (ip), vehicle: Klucel (hydroxypropylcellulose) (HPC) 98 % of control

COc1cc(/C=N/Nc2ccc([N+](=O)[O-])cc2)cc(OC)c1OC
inactive: dose: 50.0 mg/kg/injection, schedule: Q04DX003 (ip), vehicle: saline with Tween-80 100 % of control | [3] 95 % of control | [1] 95 % of control | [4] 95 % of control | [2] 105 % of control | dose: 400.0 mg/kg/injection, schedule: Q01DX009 (ip), vehicle: saline with Tween-80 100 % of control

O=C(O)CCc1cccnc1
inactive: [3] 104 % of control

CCOC(=O)C1OC12CCCCC2 (centres undefined)
inactive: dose: 100.0 mg/kg/injection, schedule: Q01DX001 (ip), vehicle: Klucel (hydroxypropylcellulose) (HPC) 109 % of control | dose: 200.0 mg/kg/injection, schedule: Q01DX001 (ip), vehicle: Klucel (hydroxypropylcellulose) (HPC) 100 % of control | dose: 200.0 mg/kg/injection, schedule: Q04DX003 (ip), vehicle: Klucel (hydroxypropylcellulose) (HPC) 100 % of control | dose: 400.0 mg/kg/injection, schedule: Q01DX001 (ip), vehicle: Klucel (hydroxypropylcellulose) (HPC) 113 % of control | [5] 116 % of control
